Experiment [1] relates to Kir7.1 channel in LCA16 iPSC-RPE cells. In words: Whole-cell patch clamp of LCA16 patient-derived iPSC-RPE cells. The experiment is classed as cell-based, human. The protocol:
Electrophysiology. Standard whole cell patch clamp on single cells were performed as described^6 Briefly, the tight monolayer of hiPSC-RPE grown on a 6.5 mm transwell was dissociated into a single cell suspension as follows: the medium in which cells were maintained was completely removed and the cells were washed twice with 0NaCMF solution (135 mM NMDG-Cl, 5 mM KCl, 10 mM HEPES, 10 mM Glucose, 2 mM EDTA-KOH and adjusted to pH 7.4 with NMDG free base). The cells were then incubated with 0NaCMF containing papain (2.5 μl/ml), cysteine (0.3 mg/ml), glutathione (0.25 mg/ml) and taurine (0.05 mg/ml) for 45 mins at 37° C. The cells were rinsed with 0NaCMF solution to remove enzymes, resuspended in HEPES-Ringer's (HR) solution [NaCl (135 mM), KCl (5 mM), CaCl2) (1.8 mM), MgCl2 (1 mM), HEPES (10 mM), D-glucose (10 mM), pH 7.4±0.1 with NaOH, prepared in ddH2O], and kept on ice for up to 8 hrs until used for electrophysiological recording.
Single hiPSC-RPE cells with distinct apical processes were chosen for conventional patch clamping. Patch pipettes with a resistance of […] were fabricated from borosilicate capillaries using a pipet puller (P-1000®, Sutter instruments). The glass electrode was then fire polished using a microforge (MF-830®, Narshige). Data acquisition and the holding potential parameters were controlled using the Clampex® software (Axon instruments). Current recorded from the successful patch was amplified using Axopatch 200-B® (Axon Instruments) and filtered at 2 KHz. The signal was digitized using digidata 1400A® (Axon instruments) and analyzed using Clampfit® (Axon Instruments). During patch clamping, HR solution was continuously perfused as an external solution. The patch pipette was filled with solution containing 30 mM KCl, 83 mM K-gluconate, 5.5 mM EGTA-KOH, 0.05 mM CaCl2), 4 mM MgCl2, 10 mM HEPES, pH adjusted to 7.2 with KOH and filtered using the 0.2 μm filter.

The test system of experiment [2] is Kir7.1 Trp53Ter protein in CHO-K1 cells. In words: Immunoprecipitation / Western blot of GFP-fused Kir7.1 Trp53Ter protein after read-through. The experiment is classed as cell-based. The note with it: Kir7.1-GFP fusion W53X, NB84-treated cells, anti-GFP. (In general: A western blot detects proteins with antibodies after separation by electrophoresis.)
[3] abbreviates: LCA16 hiPSC-RPE subgroup, 100 or 500 μM NB84.

“Also recorded” adds a separate entry of the source.

Consider `C[C@@H](O)C1O[C@H](O[C@@H]2C(N)C[C@@H](NC(=O)[C@@H](O)CCN)[C@@H](O)C2O[C@@H]2O[C@H](CN)[C@H](O)C2O)[C@@H](N)C(O)[C@@H]1O` (some centres unmarked) [NB84], for which, in experiment [1] (setting [3]), the “Current amplitude rescue in a subpopulation of cells” value is listed as “no rescue in current amplitude” and the “Membrane potential rescue in a subpopulation of cells” value is “rescue of membrane potential to control levels”. Also, the “Enhancement of current by Rb+” value in experiment [1] (LCA16 iPSC-RPE, 500 μM NB84) amounted to 10 fold. In experiment [1] (LCA16 iPSC-RPE, 500 μM NB84, high external Rb+, −150 mV, n=8), the “Current amplitude upon introduction of Rb+” value was −1562.7±546.7 pA. Also, in experiment [1] (LCA16 iPSC-RPE, 500 μM NB84, inward current at −150 mV, n=8), the “Kir7.1 current amplitude, normal external K+” value is −94.3±24 pA. In experiment [1] (LCA16 iPSC-RPE, NB84-treated cells, n=10), this molecule showed a Membrane potential of −56.3±3.6 mV. For the same molecule, in experiment [1] (LCA16 iPSC-RPE, bar graph comparison FIG. 7D), the “Resting membrane potential versus control level” value was “recovery of LCA16 iPSC-RPE to control level”. For the same molecule, in experiment [2], the “Full-length Kir7.1 protein product” value is “a protein band equivalent to the full-length product was detected; also recorded: partial restoration of the full-length protein product”.
